# Laboratory results taken from patent publication US20110269226A1, “Microfluidic Continuous Flow Device for Culturing Biological Material” (priority 2008, published 2011).
# What was measured:
# medeka fish embryo = assay: Effect of chemical substances on fish embryo development in cultivation chamber of microfluidic continuous flow device; assay type: in vivo, Medaka (Oryzias latipes); settings: for death of the Medaka embryos: after 25 hours
# From the text: A medeka fish embryo was introduced into the cultivation chamber using a pipette. The fish embryos maintain the same size until they hatch. Once all the embryos are transferred to the 8 wells of the microfluidic continuous flow device shown in FIG. 1, a coverslip is placed over the wells to seal them off.
# In two different experiments EtOH (ethanol, 0-5%) and TAA ([…], 0-3%) were used as chemical substances to test the reaction of the fish embryo retained in the cultivation chamber of the microfluidic continuous flow device shown in FIG. 1. Both substances affect the liver (TAA induces lipid peroxidation which leads to liver damage). An over-dosage of both will lead to death. The flow rate in the microfluidic continuous flow device is about 1 ml/2.5 hours or 400 μl/h.
# zebrafish = settings: cited from earlier work
smiles,measurement,setting,value
"CCO [EtOH, ethanol]",intoxication of the embryo versus concentration,"medeka fish embryo; EtOH 0 to 5 v/v %, over 25 hours","The higher the concentration of the EtOH, the intoxicated the embryo is"
same,effect on organs,"medeka fish embryo; EtOH highest concentration (4.27% and 5%), 25 hours",the organs seem to be affected
same,organ colour change,"medeka fish embryo; ethanol, the higher concentrations",the organs turned black
same,number of twitches (movements) of the embryo in the chamber,medeka fish embryo; rising ethanol concentration (0 to 5 v/v %),the number of twitches rose with the ethanol concentration
"CC1(C)O[C@@H]2C[C@H]3[C@@H]4CCC5=CC(=O)C=C[C@]5(C)[C@@]4(F)[C@@H](O)C[C@]3(C)[C@]2(C(=O)CO)O1 [TAA, triamcinolone acetonide]",death of the Medaka embryos,"medeka fish embryo; TAA 1.5, 2 and 2.5 v/v %",died
same,death of the Medaka embryo,"medeka fish embryo; TAA 3 v/v % (highest concentration), after 21 hours, stage 38",died and caused the death of the Medaka embryo
same,death of the Medaka embryos,"medeka fish embryo; TAA, the 4 highest concentrations",had died
CNC(=O)Oc1cccc2ccccc12 [carbaryl],effects observed on early development,zebrafish,Red blood cell accumulation and delayed hatching
